Values of other authors, collected in patent publication US8017624B2, “Fused aminopiperidines as dipeptidyi peptidase-IV inhibitors for the treatment or prevention of diabetes” (Merck Sharp & Dohme Corp., priority 2005, dated 2011).

Columns and labels:
[1] = system: cardiac allograft survival; details: rats; Transplantation 63: 1495-1500 (1997)
[2] = system: hematopoiesis; details: mouse, cyclophosphamide-induced neutropenia; WO 99/56753
[3] = target: T1, DPP-IV (Homo sapiens, UniProt P27487)
T1 construct: GRF is rapidly degraded in plasma to GRF[3-44]
T1 sequence (P27487 whole entry, species assumed): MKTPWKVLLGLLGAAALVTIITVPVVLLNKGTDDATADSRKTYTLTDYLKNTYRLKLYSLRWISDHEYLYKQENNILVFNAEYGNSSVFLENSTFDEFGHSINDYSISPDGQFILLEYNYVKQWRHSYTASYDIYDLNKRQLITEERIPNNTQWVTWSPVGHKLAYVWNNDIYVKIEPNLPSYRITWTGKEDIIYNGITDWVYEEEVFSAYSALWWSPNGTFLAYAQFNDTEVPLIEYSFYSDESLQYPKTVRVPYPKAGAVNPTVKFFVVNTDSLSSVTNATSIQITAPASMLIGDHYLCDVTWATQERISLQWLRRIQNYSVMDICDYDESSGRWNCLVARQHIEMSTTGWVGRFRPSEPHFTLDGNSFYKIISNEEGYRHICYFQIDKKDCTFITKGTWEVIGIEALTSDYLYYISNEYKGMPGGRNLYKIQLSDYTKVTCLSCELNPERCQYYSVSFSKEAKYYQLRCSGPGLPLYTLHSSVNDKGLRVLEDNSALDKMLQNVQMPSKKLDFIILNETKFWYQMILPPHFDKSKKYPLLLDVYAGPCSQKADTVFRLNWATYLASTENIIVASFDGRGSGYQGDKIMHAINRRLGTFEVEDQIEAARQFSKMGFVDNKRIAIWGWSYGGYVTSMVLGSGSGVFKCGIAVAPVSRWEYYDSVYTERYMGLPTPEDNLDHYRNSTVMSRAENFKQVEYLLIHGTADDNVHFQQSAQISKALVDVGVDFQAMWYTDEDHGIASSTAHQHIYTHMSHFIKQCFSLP

## CC(C)N1CCC(c2ccccc2)(c2ccccc2)CC1 [Prodipine, Pro-Pro-diphenyl-phosphonate]
[1]
  cardiac allograft survival: double cardiac allograft survival in rats from day 7 to day 14

## CC(C)[C@H](N)C(=O)N1CCC[C@H]1B(O)O [Val-Boro-Pro]
[2]
  effect on hematopoiesis: stimulated hematopoiesis

## CC[C@H](C)[C@H](N)C(=O)N1CCC[C@H]1C(=O)N[C@H](C(=O)O)[C@@H](C)CC [diprotin A]
[3]
  degradation of GRF in plasma to GRF[3-44]: prevented
